Assays:
TMD8 = experiment: Combined drug treatment cell viability (CellTiter-Glo), ibrutinib with BET inhibitors, TMD8; format: cell-based; conditions: JQ1 20 nM, OTX015 100 nM or medium alone (row), 3 days
Procedure: (§1) The DLBCL cell lines used during the experiments included TMD8, OCI-LY3, OCI-LY10, U-2932 and SU-DHL-2. DLBCL cells at either 1×10^4 cells or 2×10^4 cells were plated onto each well of a 96-W plate (Table 1). […] The 96-W plate was then incubated for 3 days. Cell viability was examined using a CellTiter-Glo assay. A 40 μL of CellTiter-Glo reagent was added directly into each well of the 96-W plate. The plate was then shaken on a Shaker ([…]) at speed 5 for 10-20 min at room temperature. Next, about 100 μL of the mixed medium was transferred to a white, non-transparent, flat bottom 96-W plate for assaying. […] Measurements were taken at room temperature. CellTiter-Glow reagents were thawed prior to use. Cells pre-plated onto a second 96-W plate and incubated at room temperature for 30 minutes were used for calibration purposes. […] CI is a quantitative description of the interaction property of the combination of two drugs.

OCI-LY10 = experiment: Combined drug treatment cell viability (CellTiter-Glo), ibrutinib with BET inhibitors, OCI-LY10; format: cell-based; conditions: OCI-LY-10, JQ1 1 uM, OTX015 1 uM or medium alone (row), 3 days
Procedure: as §1

OCI-LY3 = experiment: Combined drug treatment cell viability (CellTiter-Glo), ibrutinib with BET inhibitors, OCI-LY3; format: cell-based; conditions: OCI-LY-3, JQ1 1 uM, OTX015 1 uM or medium alone (row), 3 days
Procedure: as §1

U-2932 = experiment: Combined drug treatment cell viability (CellTiter-Glo), ibrutinib with BET inhibitors, U-2932; format: cell-based; conditions: U2932, JQ1 20 nM, OTX015 50 nM (Table 2) or medium alone (row), 3 days
Procedure: as §1

SU-DHL-2 = experiment: Combined drug treatment cell viability (CellTiter-Glo), ibrutinib with BET inhibitors, SU-DHL-2; format: cell-based; conditions: JQ1 100 nM, OTX015 1 uM (Table 2) or medium alone (row), 3 days
Procedure: as §1

[1] = system: activated B-cell like (ABC) subtype of DLBCL; conditions: patients with ABC subtype of DLBCL; cited from earlier work
[2] = ibrutinib 0.0256 nM with I-BET151 200 nM
[3] = ibrutinib 0.64 nM with I-BET151 200 nM
[4] = ibrutinib 3.2 nM with I-BET151 200 nM
[5] = ibrutinib 16 nM with I-BET151 200 nM
[6] = ibrutinib 80 nM with I-BET151 200 nM
[7] = ibrutinib 400 nM with I-BET151 200 nM
[8] = ibrutinib 2000 nM with I-BET151 200 nM
[9] = ibrutinib 10000 nM with I-BET151 200 nM
[10] = ibrutinib […] with I-BET151 200 nM
[11] = ibrutinib 0.0256 nM with I-BET151 5 uM
[12] = ibrutinib 0.64 nM with I-BET151 5 uM
[13] = ibrutinib 3.2 nM with I-BET151 5 uM
[14] = ibrutinib 16 nM with I-BET151 5 uM
[15] = ibrutinib 80 nM with I-BET151 5 uM
[16] = ibrutinib 400 nM with I-BET151 5 uM
[17] = ibrutinib 2000 nM with I-BET151 5 uM
[18] = ibrutinib 10000 nM with I-BET151 5 uM
[19] = ibrutinib […] with I-BET151 5 uM

C=CC(=O)N1CCC[C@@H](n2nc(-c3ccc(Oc4ccccc4)cc3)c3c(N)ncnc32)C1 [ibrutinib, 1-((R)-3-(4-amino-3-(4-phenoxyphenyl)-1H-pyrazolo[3,4-d]pyrimidin-1-yl)piperidin-1-yl)prop-2-en-1-one]
luminescent signals (TMD8; [2]): 32496.06 | luminescent signals (TMD8; [3]): 29180.29 | luminescent signals (TMD8; [4]): 31383.77 | luminescent signals (TMD8; [5]): 27190.31 | luminescent signals (TMD8; [6]): 28263.05 | luminescent signals (TMD8; [7]): 25674.76 | luminescent signals (TMD8; [8]): 23421.2 | luminescent signals (TMD8; [9]): 10819.72 | luminescent signals (TMD8; [10]): 32828.16 | luminescent signals (OCI-LY10; [11]): 61548.88 | luminescent signals (OCI-LY10; [12]): 63983.91 | luminescent signals (OCI-LY10; [13]): 51190.81 | luminescent signals (OCI-LY10; [14]): 27324.38 | luminescent signals (OCI-LY10; [15]): 23511.43 | luminescent signals (OCI-LY10; [16]): 23784.91 | luminescent signals (OCI-LY10; [17]): 24452.84 | luminescent signals (OCI-LY10; [18]): 24826.24 | luminescent signals (OCI-LY10; [19]): 68196.56 | luminescent signals (OCI-LY3; [11]): 63957.7 | luminescent signals (OCI-LY3; [12]): 63322.7 | luminescent signals (OCI-LY3; [13]): 66789.02 | luminescent signals (OCI-LY3; [14]): 64655.7 | luminescent signals (OCI-LY3; [15]): 68972.2 | luminescent signals (OCI-LY3; [16]): 64472.02 | luminescent signals (OCI-LY3; [17]): 55749.79 | luminescent signals (OCI-LY3; [18]): 63477.51 | luminescent signals (OCI-LY3; [19]): 59441.78 | luminescent signals (U-2932; [2]): 63123.8 | luminescent signals (U-2932; [3]): 53722.16 | luminescent signals (U-2932; [4]): 53031.79 | luminescent signals (U-2932; [5]): 51023.93 | luminescent signals (U-2932; [6]): 49777.58 | luminescent signals (U-2932; [7]): 46009.54 | luminescent signals (U-2932; [8]): 46858.01 | luminescent signals (U-2932; [9]): 37935.94 | luminescent signals (U-2932; [10]): 57150.28 | luminescent signals (SU-DHL-2; ibrutinib 0.0256 nM with I-BET151 2 uM): 141202 | luminescent signals (SU-DHL-2; ibrutinib 0.64 nM with I-BET151 2 uM): 159399 | luminescent signals (SU-DHL-2; ibrutinib 3.2 nM with I-BET151 2 uM): 161613.5 | luminescent signals (SU-DHL-2; ibrutinib 16 nM with I-BET151 2 uM): 155353.5 | luminescent signals (SU-DHL-2; ibrutinib 80 nM with I-BET151 2 uM): 164140.7 | luminescent signals (SU-DHL-2; ibrutinib 400 nM with I-BET151 2 uM): 159908.6 | luminescent signals (SU-DHL-2; ibrutinib 2000 nM with I-BET151 2 uM): 154426.1 | luminescent signals (SU-DHL-2; ibrutinib 10000 nM with I-BET151 2 uM): 111485.8 | luminescent signals (SU-DHL-2; ibrutinib […] with I-BET151 2 uM): 146159.1 | overall response rate [1]: 41% | overall survival [1]: 9.7 month

Source: US20160022684A1, “BET INHIBITOR AND BRUTON'S TYROSINE KINASE INHIBITOR COMBINATIONS” (Pharmacyclics LLC, priority 2014, published 2016)
